In ChEMBL document CHEMBL3045456, “Biological Activity of Carpropamid (KTU 3616)” (1997):
In brackets after ≈: the same amount, converted by molar mass. Activity calls are given as the source filed them. No cut-off for these calls is given here.

What was measured:
[1] = system: Phytophthora nicotianae; assay: Antifungal activity against Phytophthora nicotianae var. parasitica assessed as colony color change after 2 to 7 days; format: functional, organism-based
[2] = system: Alternaria brassicicola; assay: Antifungal activity against Alternaria brassicicola assessed as growth inhibition after 2 to 7 days; format: functional; settings: read-out: ED50 (the source's name)
[3] = system: Pyricularia oryzae; assay: Antifungal activity against Magnaporthe oryzae assessed as growth inhibition after 2 to 7 days; format: functional; settings: read-out: ED50 (the source's name)
[4] = system: Verticillium dahliae; assay: Antifungal activity against Verticillium dahliae assessed as colony color change after 2 to 7 days; format: functional, organism-based
[5] = system: Xanthomonas campestris pv. oryzae; assay: Antibacterial activity against Xanthomonas campestris pv. oryzae assessed as growth inhibition after 2 days; format: functional; settings: 48 h, read-out: ED50 (the source's name)
[6] = system: Fusarium oxysporum f. sp. lycopersici; assay: Antifungal activity against Fusarium oxysporum f. sp. lycopersici assessed as colony colour change after 2 to 7 days; format: functional, organism-based
[7] = system: Botrytis cinerea; assay: Antifungal activity against Botryotinia fuckeliana assessed as colony color change after 2 to 7 days; format: functional, organism-based
[8] = system: Penicillium digitatum; assay: Antifungal activity against Penicillium digitatum assessed as growth inhibition after 2 to 7 days; format: functional; settings: read-out: ED50 (the source's name)
[9] = system: Botrytis cinerea; assay: Antifungal activity against Botryotinia fuckeliana assessed as growth inhibition after 2 to 7 days; format: functional; settings: read-out: ED50 (the source's name)
[10] = system: Pyricularia grisea; assay: Inhibition of Magnaporthe grisea infection of rice plant at 0.01 % sprayed onto inoculated rice seedlings at every 2 hr from 2 to 12 hr after inoculation measured after 6 hr; format: functional, organism-based
[11] = system: Pectobacterium carotovorum; assay: Antibacterial activity against Pectobacterium carotovorum assessed as growth inhibition after 2 days; format: functional; settings: 48 h, read-out: ED50 (the source's name)
[12] = system: Penicillium digitatum; assay: Antifungal activity against Penicillium digitatum assessed as colony color change after 2 to 7 days; format: functional, organism-based
[13] = system: Nakataea oryzae; assay: Antifungal activity against Magnaporthe salvinii assessed as growth inhibition after 2 to 7 days; format: functional; settings: read-out: ED50 (the source's name)
[14] = system: Bipolaris oryzae; assay: Antifungal activity against Bipolaris oryzae assessed as colony color change after 2 to 7 days; format: functional, organism-based
[15] = system: Pyricularia grisea; assay: Inhibition of Magnaporthe grisea infection of rice plant at 0.01 % sprayed onto inoculated rice seedlings at every 2 hr from 2 to 12 hr after inoculation measured after 8 hr; format: functional, organism-based
[16] = system: Colletotrichum lagenaria; assay: Antifungal activity against Colletotrichum lagenaria assessed as colony color change after 2 to 7 days; format: functional, organism-based
[17] = system: Colletotrichum lagenaria; assay: Antifungal activity against Colletotrichum lagenaria assessed as growth inhibition after 2 to 7 days; format: functional; settings: read-out: ED50 (the source's name)
[18] = system: Pyricularia oryzae; assay: Inhibition of dark brown pigmentation formation in appressorium cells of Magnaporthe oryzae at > 0.1 ppm after 24 hr; format: functional, organism-based
[19] = system: Pyricularia grisea; assay: Inhibition of Magnaporthe grisea infection of rice plant at 0.01 % sprayed onto inoculated rice seedlings at every 2 hr from 2 to 12 hr after inoculation measured after 10 hr; format: functional, organism-based
[20] = system: Sclerotinia sclerotiorum; assay: Antifungal activity against Sclerotinia sclerotiorum assessed as colony color change after 2 to 7 days; format: functional, organism-based
[21] = system: Pectobacterium carotovorum; assay: Antibacterial activity against Pectobacterium carotovorum assessed as colony color change after 2 days; format: functional, organism-based
[22] = system: Pseudomonas; assay: Antibacterial activity against Pseudomonas lachrymans assessed as colony color change after 2 days; format: functional, organism-based
[23] = system: Thanatephorus cucumeris; assay: Antifungal activity against Thanatephorus cucumeris assessed as growth inhibition after 2 to 7 days; format: functional; settings: read-out: ED50 (the source's name)
[24] = system: Fusarium oxysporum f. sp. lycopersici; assay: Antifungal activity against Fusarium oxysporum f. sp. lycopersici assessed as growth inhibition after 2 to 7 days; format: functional; settings: read-out: ED50 (the source's name)
[25] = system: Phytophthora nicotianae; assay: Antifungal activity against Phytophthora nicotianae var. parasitica assessed as growth inhibition after 2 to 7 days; format: functional; settings: read-out: ED50 (the source's name)
[26] = system: Cytospora ceratosperma; assay: Antifungal activity against Valsa ceratosperma assessed as colony color change after 2 to 7 days; format: functional, organism-based
[27] = system: Botryosphaeria kuwatsukai; assay: Antifungal activity against Botryosphaeria berengeriana f.sp. pyricola assessed as growth inhibition after 2 to 7 days; format: functional; settings: read-out: ED50 (the source's name)
[28] = system: Pythium; assay: Antifungal activity against Pythium sp. assessed as colony color change after 2 to 7 days; format: functional, organism-based
[29] = system: Nakataea oryzae; assay: Antifungal activity against Magnaporthe salvinii assessed as colony color change after 2 to 7 days; format: functional, organism-based
[30] = system: Xanthomonas campestris pv. oryzae; assay: Antibacterial activity against Xanthomonas campestris pv. oryzae assessed as colony color change after 2 days; format: functional, organism-based
[31] = system: Thanatephorus cucumeris; assay: Antifungal activity against Thanatephorus cucumeris assessed as colony color change after 2 to 7 days; format: functional, organism-based
[32] = system: Alternaria brassicicola; assay: Antifungal activity against Alternaria brassicicola assessed as colony color change after 2 to 7 days; format: functional, organism-based
[33] = system: Pythium; assay: Antifungal activity against Pythium sp. assessed as growth inhibition after 2 to 7 days; format: functional; settings: read-out: ED50 (the source's name)
[34] = system: Cytospora ceratosperma; assay: Antifungal activity against Valsa ceratosperma assessed as growth inhibition after 2 to 7 days; format: functional; settings: read-out: ED50 (the source's name)
[35] = system: Pseudomonas; assay: Antibacterial activity against Pseudomonas lachrymans assessed as growth inhibition after 2 days; format: functional; settings: 48 h, read-out: ED50 (the source's name)
[36] = system: Pyricularia oryzae; assay: Inhibition of spore germination in Magnaporthe oryzae up to 40 ppm after 24 hr; format: functional, organism-based
[37] = system: Fusarium fujikuroi; assay: Antifungal activity against Fusarium fujikuroi assessed as colony color change after 2 to 7 days; format: functional, organism-based
[38] = system: Pyricularia oryzae; assay: Antifungal activity against Magnaporthe oryzae assessed as colony color change after 2 to 7 days; format: functional, organism-based
[39] = system: Pyricularia oryzae; assay: Inhibition of appressorium formation in Magnaporthe oryzae up to 40 ppm after 24 hr; format: functional, organism-based
[40] = system: Sclerotinia sclerotiorum; assay: Antifungal activity against Sclerotinia sclerotiorum assessed as growth inhibition after 2 to 7 days; format: functional; settings: read-out: ED50 (the source's name)
[41] = system: Bipolaris oryzae; assay: Antifungal activity against Bipolaris oryzae assessed as growth inhibition after 2 to 7 days; format: functional; settings: read-out: ED50 (the source's name)
[42] = system: Botryosphaeria kuwatsukai; assay: Antifungal activity against Botryosphaeria berengeriana f.sp. pyricola assessed as colony color change after 2 to 7 days; format: functional, organism-based
[43] = system: Verticillium dahliae; assay: Antifungal activity against Verticillium dahliae assessed as growth inhibition after 2 to 7 days; format: functional; settings: read-out: ED50 (the source's name)
[44] = system: Fusarium fujikuroi; assay: Antifungal activity against Fusarium fujikuroi assessed as growth inhibition after 2 to 7 days; format: functional; settings: read-out: ED50 (the source's name)

CC[C@]1(C(=O)N[C@H](C)c2ccc(Cl)cc2)[C@H](C)C1(Cl)Cl (relative stereo) [trans-Carpropamid]
Activity [1]: inactive
EC50 [2]: > 200 µg/mL
EC50 [3]: > 200 µg/mL
Activity [4]: Active
EC50 [5]: > 200 µg/mL
Activity [6]: inactive
Activity [7]: inactive
EC50 [8]: > 200 µg/mL
EC50 [9]: > 200 µg/mL
inhibition [10]: Active
EC50 [11]: > 200 µg/mL
Activity [12]: inactive
EC50 [13]: > 200 µg/mL
Activity [14]: Active
inhibition [15]: inactive
Activity [16]: Active
EC50 [17]: > 200 µg/mL
inhibition [18]: inactive
inhibition [19]: inactive
Activity [20]: inactive
Activity [21]: inactive
Activity [22]: inactive
EC50 [23]: > 200 µg/mL
EC50 [24]: > 200 µg/mL
EC50 [25]: 50 µg/mL (≈ 149 µM)
Activity [26]: Active
EC50 [27]: > 200 µg/mL
Activity [28]: inactive
Activity [29]: Active
Activity [30]: inactive
Activity [31]: Active
Activity [32]: Active
EC50 [33]: 200 µg/mL (≈ 598 µM)
EC50 [34]: > 200 µg/mL
EC50 [35]: > 200 µg/mL
inhibition [36]: inactive
Activity [37]: inactive
Activity [38]: Active
inhibition [39]: inactive
EC50 [40]: > 200 µg/mL
EC50 [41]: > 200 µg/mL
Activity [42]: Active
EC50 [43]: > 200 µg/mL
EC50 [44]: > 200 µg/mL
